From patent publication US12630498B2 (Genzyme Corporation, priority 2019, dated 2026)

How the values were obtained:
[1] = target: T1, human Cystic Fibrosis Transmembrane Conductance Regulator (CFTR) harboring the ΔF508 mutation (Homo sapiens, UniProt P13569, DEL508-508); assay: H441 cell ΔF508-CFTR-HRP cell surface assay (Emax and EC50); assay type: cell-based; conditions: for Emax: NCI-H441, NA = Not active
T1 construct: expressed in transfected cells; host or cells: H441 carcinoma line (G418-selected)
Outline: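 H441 and 41o- bronchial epithelial cells expressing ΔF508-CFTR with an extracellular-loop-4 HRP tag were treated with a 15-point compound series (24.5–0.001 μM) for two nights, H441 at 27° C, 41o- at 37° C with 0.0005 mg/ml doxycycline. Surface HRP luminescence read; % of maximum VX809 signal and EC50 derived.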

[2] = target: T2, CFTR-mediated transepithelial chloride transport in primary human bronchial epithelial cells from a ΔF508 homozygous CF donor (Homo sapiens, UniProt P13569, DEL508-508); assay: TECC24 recording of CFTR-mediated transepithelial chloride transport in CF-HBE cells (AUC fold over DMSO); assay type: cell-based; conditions: test agent 10 μM, 48 hours incubation, AUC of forskolin-stimulated IEQ relative to DMSO
T2 construct: Primary human bronchial epithelial cells from a ΔF508 homozygous CF donor; host or cells: primary CF-HBE cells, ΔF508 homozygous donor
Outline: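 Equivalent Cl⁻ current was derived from transepithelial voltage and resistance, and its AUC from forskolin (10 μM) to CFTRinh-172 (20 μM) was divided by the DMSO AUC. Benzamil 10 μM blocked ENaC. Cells were ΔF508-homozygous primary bronchial epithelia pretreated 48 h at 36.5 °C in IL-13 medium.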

T1 sequence (P13569 with tags, fused parts or gaps DEL508-508): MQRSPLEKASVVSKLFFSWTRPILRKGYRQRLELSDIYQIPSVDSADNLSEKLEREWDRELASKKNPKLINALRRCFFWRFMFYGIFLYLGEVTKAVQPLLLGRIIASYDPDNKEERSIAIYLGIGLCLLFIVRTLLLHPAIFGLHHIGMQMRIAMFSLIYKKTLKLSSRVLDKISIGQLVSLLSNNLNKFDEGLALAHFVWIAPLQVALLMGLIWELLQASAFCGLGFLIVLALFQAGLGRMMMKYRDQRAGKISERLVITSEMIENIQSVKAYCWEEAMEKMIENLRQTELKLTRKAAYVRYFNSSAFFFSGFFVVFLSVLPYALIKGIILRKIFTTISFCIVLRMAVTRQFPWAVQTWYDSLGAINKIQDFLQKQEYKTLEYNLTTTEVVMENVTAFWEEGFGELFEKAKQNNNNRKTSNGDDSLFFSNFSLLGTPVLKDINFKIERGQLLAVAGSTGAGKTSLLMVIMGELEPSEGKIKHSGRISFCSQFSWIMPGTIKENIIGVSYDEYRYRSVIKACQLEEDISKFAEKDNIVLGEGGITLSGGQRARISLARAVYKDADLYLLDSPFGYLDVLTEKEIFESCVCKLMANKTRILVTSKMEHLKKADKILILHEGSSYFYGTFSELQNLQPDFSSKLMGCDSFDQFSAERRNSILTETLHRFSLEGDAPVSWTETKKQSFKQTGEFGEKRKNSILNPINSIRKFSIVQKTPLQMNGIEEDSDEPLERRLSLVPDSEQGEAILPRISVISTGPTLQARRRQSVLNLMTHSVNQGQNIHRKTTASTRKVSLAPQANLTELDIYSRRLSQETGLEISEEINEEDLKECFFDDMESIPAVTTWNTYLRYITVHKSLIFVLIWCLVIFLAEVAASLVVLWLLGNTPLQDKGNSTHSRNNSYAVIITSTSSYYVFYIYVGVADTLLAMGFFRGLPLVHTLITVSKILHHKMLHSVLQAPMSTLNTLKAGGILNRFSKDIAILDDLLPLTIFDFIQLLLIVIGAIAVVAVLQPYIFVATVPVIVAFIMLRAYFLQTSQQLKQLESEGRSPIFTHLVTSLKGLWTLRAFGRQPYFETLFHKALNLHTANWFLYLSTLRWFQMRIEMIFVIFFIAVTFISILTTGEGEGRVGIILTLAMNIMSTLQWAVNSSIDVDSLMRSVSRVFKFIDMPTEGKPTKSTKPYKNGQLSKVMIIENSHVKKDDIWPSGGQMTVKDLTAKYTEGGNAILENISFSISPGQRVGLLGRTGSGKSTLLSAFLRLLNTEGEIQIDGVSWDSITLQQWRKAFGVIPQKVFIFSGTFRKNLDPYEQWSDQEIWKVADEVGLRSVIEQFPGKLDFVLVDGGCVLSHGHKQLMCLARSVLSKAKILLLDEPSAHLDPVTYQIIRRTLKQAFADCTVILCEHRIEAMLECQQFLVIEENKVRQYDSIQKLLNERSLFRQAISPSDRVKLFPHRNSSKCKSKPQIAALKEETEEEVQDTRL
T2 sequence (P13569 with tags, fused parts or gaps DEL508-508): as above

EC50 [1] | Emax [1] | TECC24 AUC fold over DMSO @10 μM [2] | Structure (SMILES)
100 nM | 275% | A (“A” refers to AUC @10 uM >6) | CC(C)(C)[C@H](NC(=O)c1ccc2ccc(Cl)cc2c1OCc1ccc(OC(F)(F)F)cc1)C(=O)O [Example 237, (S)-2-(7-chloro-1-((4-(trifluoromethoxy)benzyl)oxy)-2-naphthamido)-3,3-dimethyl Butanoic Acid]
400 nM | 57.8% | C (“C” refers to AUC @10 uM <4) | CC1(C(NC(=O)c2ccc3cc(F)ccc3c2OCc2ccc(S(F)(F)(F)(F)F)cc2)C(=O)O)CCCCC1 (stereo not drawn) [Example 50, 2-(6-fluoro-1-((4-(pentafluoro-16-sulfanyl)benzyl)oxy)-2-naphthamido)-2-(1-methylcyclohexyl)acetic Acid]
500 nM | 287% | C (“C” refers to AUC @10 uM <4) | CC(C)(C)[C@H](NC(=O)c1ccc2ccccc2c1OCc1ccc(C(F)(F)F)c(F)c1)C(=O)O [Example 25, (S)-2-(1-((3-fluoro-4-(trifluoromethyl)benzyl)oxy)-2-naphthamido)-3,3-dimethylbutanoic Acid]
1700 nM | 127% | C (“C” refers to AUC @10 uM <4) | CC1(C(NC(=O)c2ccc3ccccc3c2OCc2ccc(C(F)(F)F)cc2)C(=O)O)CC1 (stereo not drawn) [Example 56, 2-(1-methylcyclopropyl)-2-(1-((4-(trifluoromethyl)benzyl)oxy)-2-naphthamido)acetic Acid]
200 nM | 195% | A (“A” refers to AUC @10 uM >6) | CCC(C)(C)[C@H](NC(=O)c1ccc2ccc(F)cc2c1OCc1ccc(C(F)(F)F)cc1)C(=O)O [Example 274, (2S)-2-[[7-fluoro-1-[[4-(trifluoromethyl)phenyl]methoxy]naphthalene-2-carbonyl]amino]-3,3-dimethyl-pentanoic Acid]
300 nM | 100% | C (“C” refers to AUC @10 uM <4) | CC1([C@H](NC(=O)c2ccc3cc(F)ccc3c2OCc2ccc(C(F)(F)F)cc2)C(=O)O)CCCCC1 [Example 40, (S)-2-(6-fluoro-1-((4-(trifluoromethyl)benzyl)oxy)-2-naphthamido)-2-(1-methylcyclohexyl)acetic Acid]
800 nM | 37.1% | A (“A” refers to AUC @10 uM >6) | O=C(N[C@H](C(=O)O)C1CCCC1)c1ccc2cc(F)ccc2c1OCc1ccc(OC(F)(F)F)cc1 [Example 119, (S)-2-cyclopentyl-2-(6-fluoro-1-((4-(trifluoromethoxy)benzyl)oxy)-2-naphthamido)acetic Acid]
4300 nM | 38.8% | C (“C” refers to AUC @10 uM <4) | O=C(N[C@@H](Cc1ccc(C(F)(F)F)cc1)C(=O)O)c1ccc2cc(F)ccc2c1OCc1ccc(Cl)c(Cl)c1 [Example 210, (S)-2-(1-((3,4-dichlorobenzyl)oxy)-6-fluoro-2-naphthamido)-3-(4-(trifluoromethyl)phenyl)propanoic Acid]
100 nM | 348% | A (“A” refers to AUC @10 uM >6) | Cc1ccc2ccc(C(=O)N[C@H](C(=O)O)C(C)(C)C)c(OCc3ccc(C(F)(F)F)cc3)c2c1 [Example 279, (2S)-3,3-dimethyl-2-[[7-methyl-1-[[4-(trifluoromethyl)phenyl]methoxy]naphthalene-2-carbonyl]amino]butanoic Acid]
1500 nM | 87.9% | C (“C” refers to AUC @10 uM <4) | CC(C)(C)[C@H](NC(=O)c1ccc2ccccc2c1OCc1ccc(S(=O)(=O)C(F)(F)F)cc1)C(=O)O [Example 57, (S)-3,3-dimethyl-2-(1-((4-((trifluoromethyl)sulfonyl)benzyl)oxy)-2-naphthamido)butanoic Acid]
300 nM | 101% | C (“C” refers to AUC @10 uM <4) | O=C(N[C@H](C(=O)O)C(c1ccccc1)c1ccccc1)c1ccc2cc(F)ccc2c1OCc1ccc(C(F)(F)F)cc1 [Example 196]
2300 nM | 93.1% | B (“B” refers to AUC @10 uM between 4-6) | O=C(N[C@H](C(=O)O)C1CCCC1)c1ccc2ccccc2c1OCc1ccc(S(F)(F)(F)(F)F)cc1 [Example 111, (S)-2-cyclopentyl-2-(1-((4-(pentafluoro-16-sulfanyl)benzyl)oxy)-2-naphthamido)acetic Acid]
400 nM | 200% | C (“C” refers to AUC @10 uM <4) | CC(C)(C)[C@H](NC(=O)c1cc(Br)c2ccccc2c1OCc1ccc(C(F)(F)F)cc1)C(=O)O [Example 51, (S)-2-(4-bromo-1-((4-(trifluoromethyl)benzyl)oxy)-2-naphthamido)-3,3-dimethylbutanoic Acid]
5600 nM | 108% | C (“C” refers to AUC @10 uM <4) | Cc1cc(COc2c(C(=O)N[C@H](C(=O)O)C(C)(C)C)ccc3ccccc23)no1 [Example 86, (S)-3,3-dimethyl-2-(1-((5-methylisoxazol-3-yl)methoxy)-2-naphthamido)butanoic Acid]
1900 nM | 118% | A (“A” refers to AUC @10 uM >6) | O=C(N[C@H](C(=O)O)C1CCCC1)c1ccc2ccccc2c1OCc1ccc(C(F)(F)F)cc1 [Example 154, (S)-2-cyclopentyl-2-(1-((4-(trifluoromethyl)benzyl)oxy)-2-naphthamido)acetic Acid]
1800 nM | 70.7% | B (“B” refers to AUC @10 uM between 4-6) | CC(C)(C)[C@@H](NC(=O)c1ccc2ccc(C(F)F)cc2c1OCc1ccc(OC(F)(F)F)cc1)C(=O)O [Example 264, (2R)-2-[[7-(difluoromethyl)-1-[[4-(trifluoromethoxy)phenyl]methoxy]naphthalene-2-carbonyl]amino]-3,3-dimethyl-butanoic Acid]
1800 nM | 94.7% | C (“C” refers to AUC @10 uM <4) | CC(C)(C)[C@H](NC(=O)c1ccc2cc(F)ccc2c1OCC1CCCCC1)C(=O)O [Example 45, (S)-2-(1-(cyclohexylmethoxy)-6-fluoro-2-naphthamido)-3,3-dimethylbutanoic Acid]
300 nM | 309% | A (“A” refers to AUC @10 uM >6) | CCC(C)(C)C(NC(=O)c1ccc2ccc(C)cc2c1OCc1ccc(OC(F)(F)F)cc1)C(=O)O (stereo not drawn) [Example 276, 3,3-dimethyl-2-(7-methyl-1-((4-(trifluoromethoxy)benzyl)oxy)-2-naphthamido)pentanoic Acid]
200 nM | 232% | A (“A” refers to AUC @10 uM >6) | CC1([C@H](NC(=O)c2ccc3ccc(Cl)cc3c2OCc2ccc(C(F)(F)F)cc2)C(=O)O)CCC1 [Example 300, (S)-2-(7-chloro-1-((4-(trifluoromethyl)benzyl)oxy)-2-naphthamido)-2-(1-methylcyclobutyl)acetic Acid]
100 nM | 284% | A (“A” refers to AUC @10 uM >6) | CC(C)(C)[C@H](NC(=O)c1ccc2ccc(C(F)F)cc2c1OCc1ccc(OC(F)(F)F)cc1)C(=O)O [Example 245, (2S)-2-[[7-(difluoromethyl)-1-[[4-(trifluoromethoxy)phenyl]methoxy]naphthalene-2-carbonyl]amino]-3,3-dimethyl-butanoic Acid]
600 nM | 115% | B (“B” refers to AUC @10 uM between 4-6) | CCC(C)(C)[C@H](NC(=O)c1ccc2ccccc2c1OCc1ccc(SC(F)(F)F)cc1)C(=O)O [Example 55, (S)-3,3-dimethyl-2-(1-((4-((trifluoromethyl)thio)benzyl)oxy)-2-naphthamido)pentanoic Acid]
800 nM | 99.1% | C (“C” refers to AUC @10 uM <4) | CC(C)(C)[C@@H](NC(=O)c1ccc2ccc(Cl)cc2c1OCc1ccc(OC(F)(F)F)cc1)C(=O)O [Example 285, (R)-2-(7-chloro-1-((4-(trifluoromethoxy)benzyl)oxy)-2-naphthamido)-3,3-dimethylbutanoic Acid]
12200 nM | 97% | A (“A” refers to AUC @10 uM >6) | CCC(C)(C)[C@H](NC(=O)c1ccc2cc(C)ccc2c1OCc1ccc(C(F)(F)F)cc1)C(=O)O [Example 225, (2S)-3,3-dimethyl-2-[[6-methyl-1-[[4-(trifluoromethyl)phenyl]methoxy]naphthalene-2-carbonyl]amino]pentanoic Acid]
300 nM | 152% | A (“A” refers to AUC @10 uM >6) | CCC1([C@H](NC(=O)c2ccc3ccc(F)cc3c2OCc2ccc(OC(F)(F)F)cc2)C(=O)O)CCCC1 [Example 313, (S)-2-(1-ethylcyclopentyl)-2-(7-fluoro-1-((4-(trifluoromethoxy)benzyl)oxy)-2-naphthamido)acetic Acid]

Structure (SMILES) | EC50 [1] | Emax [1] | TECC24 AUC fold over DMSO @10 μM [2]
CCC(C)(C)[C@H](NC(=O)c1ccc2ccc(C)cc2c1OCCCC(C)(C)C)C(=O)O [Example 257, (2S)-2-[[1-(4,4-dimethylpentoxy)-7-methyl-naphthalene-2-carbonyl]amino]-3,3-dimethyl-pentanoic Acid] | 600 nM | 369% | A (“A” refers to AUC @10 uM >6)
